The results in this text go back to publication PMC6934184, “Selective DNA-PKcs inhibition extends the therapeutic index of localized radiotherapy and chemotherapy” (The Journal of Clinical Investigation, 2019).

The target of the test is T1, JAK1 (Homo sapiens, UniProt P23458).
T1 construct: purchased Thermo Fisher Scientific (Life Technologies) SelectScreen
As to the kind of experiment: SelectScreen Z'LYTE. The test is classed as biochemical. A digest of the protocol:
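SelectScreen broad panel; activity (Z'LYTE, Adapta) plus binding formats. ATP: Km app for CSF1R Z'LYTE; 10 for CAMK1 Adapta. Readout = % per kinase.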

T1 sequence (P23458 whole entry): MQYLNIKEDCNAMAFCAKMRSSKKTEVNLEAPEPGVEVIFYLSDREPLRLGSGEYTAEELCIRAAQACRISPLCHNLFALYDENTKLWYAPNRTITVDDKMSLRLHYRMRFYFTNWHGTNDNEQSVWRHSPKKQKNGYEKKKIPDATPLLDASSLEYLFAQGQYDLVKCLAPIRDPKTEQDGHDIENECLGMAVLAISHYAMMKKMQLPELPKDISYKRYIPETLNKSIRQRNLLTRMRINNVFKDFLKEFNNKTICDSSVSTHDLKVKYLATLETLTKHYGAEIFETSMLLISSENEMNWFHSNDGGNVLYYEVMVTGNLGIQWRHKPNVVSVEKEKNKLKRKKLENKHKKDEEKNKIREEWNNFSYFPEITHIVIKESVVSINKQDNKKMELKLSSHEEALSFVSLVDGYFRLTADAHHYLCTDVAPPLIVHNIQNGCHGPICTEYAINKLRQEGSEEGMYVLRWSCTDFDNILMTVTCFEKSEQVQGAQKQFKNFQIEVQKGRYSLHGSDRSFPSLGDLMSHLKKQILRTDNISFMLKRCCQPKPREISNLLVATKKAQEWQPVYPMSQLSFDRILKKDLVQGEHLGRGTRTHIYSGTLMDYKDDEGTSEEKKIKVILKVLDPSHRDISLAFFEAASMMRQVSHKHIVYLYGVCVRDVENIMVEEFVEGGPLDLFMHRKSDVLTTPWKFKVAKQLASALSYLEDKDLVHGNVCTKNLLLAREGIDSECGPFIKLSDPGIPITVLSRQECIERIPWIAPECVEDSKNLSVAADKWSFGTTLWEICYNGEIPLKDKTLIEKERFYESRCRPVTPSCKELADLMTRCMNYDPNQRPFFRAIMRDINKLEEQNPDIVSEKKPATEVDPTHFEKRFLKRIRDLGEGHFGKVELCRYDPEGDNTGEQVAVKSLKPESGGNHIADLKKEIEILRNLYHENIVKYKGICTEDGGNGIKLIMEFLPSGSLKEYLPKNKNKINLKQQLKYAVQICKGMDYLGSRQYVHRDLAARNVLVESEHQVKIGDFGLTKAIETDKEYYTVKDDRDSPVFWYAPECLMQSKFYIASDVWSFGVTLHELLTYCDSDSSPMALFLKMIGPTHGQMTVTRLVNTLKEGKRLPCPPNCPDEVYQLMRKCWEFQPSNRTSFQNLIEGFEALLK

As usually defined, the inhibition is the drop in the measured response relative to a control, in per cent. Regarding `CN(C(=O)CN1CCOCC1)c1ccc2sc3c(-c4cccc5c(=O)cc(N6CC7CCC(C6)O7)oc45)cccc3c2c1` [NU5455], the inhibition at 1 µM is -5.7%.
